Data published in patent publication US20210128740A1, “HDAC INHIBITORS-BASED ANTIBODY DRUG CONJUGATES (ADCs) AND USE IN THERAPY” (ALFASIGMA S.P.A., priority 2017, published 2021).

What was measured:
Parameters in all cases: species or system mice
[1] = test system: NCI-H1975 non-small cell lung carcinoma; experiment: In vivo antitumor effect against s.c. NCI-H1975 non-small cell lung cancer; conditions: 120 mg/kg, ip, q4dx4
Description: Nude Nu/Nu female mice (from Charles River, Italy) were given a single subcutaneous injection of 5×10^6 NCI-H1975 non-small cell lung carcinoma cells suspended in 100 μL cell culture medium RPMI supplemented with 10% FBS. […] Vehicle group was treated by PBS. Tumor growth was measured with a caliper and tumor volume was calculated using the formula length (mm)×width 2 (mm)/2. The tumor inhibition was calculated according to the equation: % TVI=100−(mean tumor volume of treated group/mean tumor volume of control group)×100. Toxicity was evaluated on the basis of the body weight reduction.
Animals were euthanized by CO2 inhalation when the tumors reached a volume around 1200 mm^3.

[2] = test system: CAPAN-1 orthotopic pancreatic tumor; experiment: In vivo antitumor effect against orthotopic CAPAN-1 pancreas cancer; conditions: 200 mg/kg, ip, q4dx4
Source text: Capan-1 (1×10^6) cells were directly injected into pancreas of experimental groups.

[3] = test system: A549 non-small cell lung carcinoma; experiment: In vivo antitumor effect of combination of Cetuximab with ST7612AA1 vs ADC against s.c. A549 lung cancer (Example 31)
Description: The human A549 lung carcinoma cells were cultured in their appropriate complete medium. On the day of tumor injection, cells were harvested from subconfluent cultures by trypsinization, washed with PBS, suspended in PBS and subcutaneously injected into the right flank of immunodeficient mice (5×10^6/100 μL). Treatments started when tumor size was around 80 mm^3 and mice were randomized into the experimental groups (10 mice/group): […]

CC(=O)SCCCCC[C@H](NC(=O)[C@H]1CCC(=O)N1)C(=O)Nc1ccccc1 [ST7612AA1]
Antitumor activity [1]: completely inactive | Tumor growth inhibition [2]: 32% | Antitumor activity ([3]; 0.1 mg/kg, ip, q4dx4): not effective | TVI at day 50 ([3]; 0.1 mg/kg, ip, q4dx4): 0, P = 0.95 | TVI at day 56 ([3]; 0.1 mg/kg, ip, q4dx4): 0, P = 0.88 | TVI at day 50 ([3]; 40 mg/kg, po, qdx5/wx3w): 33, P = 0.007 | TVI at day 56 ([3]; 40 mg/kg, po, qdx5/wx3w): 35, P = 0.0009
